# Assays:
# EGFR^WT kinase = EGFR^WT kinase (Homo sapiens, UniProt P00533); experiment: EGFR^WT kinase assay (ULight/PT66 TR-FRET); assay type: biochemical
# Outline: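 Enzyme preincubated 5 min with compound (11-point 3-fold series, duplicate), then ULight-JAK-1 (Tyr1023) peptide and ATP added at 4× stocks of 400 nM and 600 μM; 120 min reaction at room temperature. PT66 antibody TR-FRET read after 60 min; IC50 fitted from inhibition rates.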
# [1] = target: Ba/F3 EGFR D770_N771insSVD cells (Homo sapiens, UniProt P00533, DUP768-770, cells depend on it); experiment: Inhibition of cell proliferation, CTG method, Ba/F3 EGFR D770_N771insSVD; assay type: cell-based; conditions: 72 hours, read-out: Ba/F3 EGFR D770_N771insSVD IC50
# From the text: The present application examined the in vitro anti-proliferative activity of the compounds of the present disclosure against in vitro cultured BT474, NCI-N87, Ba/F3-EGFR-VIII and Ba/F3 HER2 A775_G776insYVMA and Ba/F3 EGFR D770_N771insSVD cell lines by CTG method.
# Reagents and consumables: RPMI1640 (ThermoFisher, Cat. No. C11875500BT); fetal bovine serum (Hyclone, Cat. No. SV30087.03); 0.25% trypsin-EDTA (ThermoFisher, Cat. No. 25200-072); penicillin-streptomycin (Hyclone, Cat. No. SV30010); DMSO (Amresco, Cat. No. 0231-500ML); CTG assay kit (Promega, Cat. No. G924C); 96-well plate (Corning, Cat. No. 3603); multifunctional plate reader (Perkin Elmer, Cat. No. Envision)
# Cell lines: BT474 (from the cell bank of Chinese Academy of Sciences), NCI-N87 (from ATCC), Ba/F3-EGFR-VIII, Ba/F3 HER2 A775_G776insYVMA and Ba/F3 EGFR D770_N771insSVD (all from KYinno Biotechnology (Beijing) Co., Ltd.); all of the above cells were cultured with RPMI1640 medium containing 10% fetal bovine serum, 100 U/mL penicillin, and 100 μg/mL streptomycin in the culture process.
# 1. The assay compound was dissolved with DMSO to form a stock solution and a gradient dilution was performed, followed by dilution with the corresponding medium to obtain a solution with 5-fold working concentration.
# 2. Cells in logarithmic growth phase were adjusted to specific cell densities by dilution with culture medium, and 80 μL of cell suspension was added to a 96-well plate, such that plating densities of cells of BT474, NCI-N87, Ba/F3-EGFR-VIII, Ba/F3 HER2 A775_G776insYVMA and Ba/F3 EGFR D770_N771insSVD were all 3000 cells/well. The cells of Ba/F3-EGFR-VIII, Ba/F3 HER2 A775_G776insYVMA and Ba/F3 EGFR D770_N771insSVD were used directly in the next step (treatment with compound), whereas the BT474 and NCI-N87 needed to be cultured overnight in a 37° C., 5% carbon dioxide gas incubator to adhere to the wall, and then treated with compounds.
# 3. 20 μL of compound solution was added to each well of the 96-well plate that had been inoculated with cells. The highest concentration of the assayed compound was 10 μM, 4-fold serial dilution, a total of 9 concentrations, and duplicate wells. A control group without compound was also set up.
# 4. The cells were cultured for another 72 hours, and then cell viability was detected by CTG assay kit. Signal values were read with a multifunctional plate reader (Perkin Elmer). GraphPad Prism software was used to create a dose-response curve and IC50 was calculated.
# HER2 kinase = target: T1, HER2 kinase (Homo sapiens, UniProt P04626); experiment: HER2 kinase assay (ULight/PT66 TR-FRET); assay type: biochemical
# T1 construct: purchased Carna Biosciences 08-016
# Outline: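 HER2 kinase preincubated 5 min with compounds (11-point 3-fold series, duplicates), then reacted 120 min at room temperature with ATP and ULight-poly GT peptide, each prepared at 4× working concentration (40 μM ATP, 400 nM substrate, 40 nM kinase). PT66 antibody added for 60 min, TR-FRET read; IC50 from inhibition curves.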
# [2] = target: Ba/F3 HER2 A775_G776insYVMA cells (Homo sapiens, UniProt P04626, DUP772-775, cells depend on it); experiment: Inhibition of cell proliferation, CTG method, Ba/F3 HER2 A775_G776insYVMA; assay type: cell-based; conditions: 72 hours, read-out: Ba/F3 HER2 A775-G776insYVMA IC50
# Outline: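 Ba/F3 HER2 A775_G776insYVMA cells in RPMI1640 with 10% FBS were plated at 3000 cells/well and treated directly with compound (top 10 μM, 4-fold, 9 concentrations, duplicates).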
# Chain of Ba/F3 HER2 A775_G776insYVMA cells (P04626 with tags, fused parts or gaps DUP772-775): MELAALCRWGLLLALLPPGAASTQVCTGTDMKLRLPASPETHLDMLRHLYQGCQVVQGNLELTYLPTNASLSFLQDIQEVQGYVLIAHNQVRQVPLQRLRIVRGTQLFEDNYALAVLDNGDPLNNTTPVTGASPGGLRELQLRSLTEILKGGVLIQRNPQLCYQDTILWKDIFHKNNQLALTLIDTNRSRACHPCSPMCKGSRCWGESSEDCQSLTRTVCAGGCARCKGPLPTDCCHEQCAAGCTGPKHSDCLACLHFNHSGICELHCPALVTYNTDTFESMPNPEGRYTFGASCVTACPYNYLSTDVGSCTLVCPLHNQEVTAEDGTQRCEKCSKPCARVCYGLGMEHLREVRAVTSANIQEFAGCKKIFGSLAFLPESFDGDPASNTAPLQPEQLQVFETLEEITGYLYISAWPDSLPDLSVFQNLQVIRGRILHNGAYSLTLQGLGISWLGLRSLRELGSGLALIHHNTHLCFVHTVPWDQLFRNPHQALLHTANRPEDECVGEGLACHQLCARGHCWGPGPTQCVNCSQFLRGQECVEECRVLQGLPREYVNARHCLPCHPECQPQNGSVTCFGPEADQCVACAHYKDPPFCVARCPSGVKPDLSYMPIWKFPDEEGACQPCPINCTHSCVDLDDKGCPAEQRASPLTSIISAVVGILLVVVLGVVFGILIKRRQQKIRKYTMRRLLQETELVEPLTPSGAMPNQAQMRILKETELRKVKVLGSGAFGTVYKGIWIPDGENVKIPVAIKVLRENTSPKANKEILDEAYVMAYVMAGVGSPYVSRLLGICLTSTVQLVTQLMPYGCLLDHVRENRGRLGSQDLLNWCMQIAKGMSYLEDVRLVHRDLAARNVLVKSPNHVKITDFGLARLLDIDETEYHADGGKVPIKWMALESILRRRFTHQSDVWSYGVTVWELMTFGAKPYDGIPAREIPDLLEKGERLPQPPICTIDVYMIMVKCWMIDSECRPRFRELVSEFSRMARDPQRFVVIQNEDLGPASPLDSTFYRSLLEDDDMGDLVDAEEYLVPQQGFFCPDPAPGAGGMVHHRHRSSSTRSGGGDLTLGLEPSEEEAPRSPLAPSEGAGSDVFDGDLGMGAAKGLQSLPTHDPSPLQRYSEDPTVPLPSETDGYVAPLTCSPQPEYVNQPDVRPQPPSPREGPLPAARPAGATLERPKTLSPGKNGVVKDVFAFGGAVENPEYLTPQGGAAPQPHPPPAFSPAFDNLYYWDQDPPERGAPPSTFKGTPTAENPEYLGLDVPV
# T1 sequence (P04626 23-1255): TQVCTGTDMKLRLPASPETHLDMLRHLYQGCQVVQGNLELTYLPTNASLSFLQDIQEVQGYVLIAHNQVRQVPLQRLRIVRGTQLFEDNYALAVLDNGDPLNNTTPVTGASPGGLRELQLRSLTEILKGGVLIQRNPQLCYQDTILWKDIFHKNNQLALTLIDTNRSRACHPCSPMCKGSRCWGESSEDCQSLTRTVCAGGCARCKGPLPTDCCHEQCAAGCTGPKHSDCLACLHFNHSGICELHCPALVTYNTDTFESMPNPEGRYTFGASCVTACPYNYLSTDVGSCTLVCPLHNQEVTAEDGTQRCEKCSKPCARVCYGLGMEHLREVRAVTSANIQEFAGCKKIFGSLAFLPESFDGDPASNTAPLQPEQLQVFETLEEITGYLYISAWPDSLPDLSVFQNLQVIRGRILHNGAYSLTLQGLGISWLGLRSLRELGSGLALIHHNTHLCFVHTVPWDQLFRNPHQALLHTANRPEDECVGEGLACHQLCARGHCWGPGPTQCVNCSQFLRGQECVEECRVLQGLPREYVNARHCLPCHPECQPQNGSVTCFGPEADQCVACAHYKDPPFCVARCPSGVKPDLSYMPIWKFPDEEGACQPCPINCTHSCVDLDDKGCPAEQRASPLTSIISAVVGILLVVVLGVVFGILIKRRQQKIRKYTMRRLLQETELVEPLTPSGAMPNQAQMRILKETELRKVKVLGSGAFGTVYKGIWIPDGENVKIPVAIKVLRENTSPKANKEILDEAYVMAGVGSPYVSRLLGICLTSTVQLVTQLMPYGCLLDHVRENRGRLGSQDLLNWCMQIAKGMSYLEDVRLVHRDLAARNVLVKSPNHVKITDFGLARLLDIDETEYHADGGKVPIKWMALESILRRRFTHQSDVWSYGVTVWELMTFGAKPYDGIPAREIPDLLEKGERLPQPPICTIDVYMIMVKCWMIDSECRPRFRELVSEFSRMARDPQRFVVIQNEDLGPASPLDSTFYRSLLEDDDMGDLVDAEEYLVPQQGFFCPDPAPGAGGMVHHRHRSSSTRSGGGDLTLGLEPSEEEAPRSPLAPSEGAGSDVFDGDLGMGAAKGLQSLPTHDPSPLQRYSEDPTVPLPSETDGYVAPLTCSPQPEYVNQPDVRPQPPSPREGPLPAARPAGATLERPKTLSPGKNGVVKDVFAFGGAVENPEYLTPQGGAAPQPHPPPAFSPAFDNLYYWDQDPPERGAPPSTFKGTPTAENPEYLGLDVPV
# Chain of Ba/F3 EGFR D770_N771insSVD cells (P00533 with tags, fused parts or gaps DUP768-770): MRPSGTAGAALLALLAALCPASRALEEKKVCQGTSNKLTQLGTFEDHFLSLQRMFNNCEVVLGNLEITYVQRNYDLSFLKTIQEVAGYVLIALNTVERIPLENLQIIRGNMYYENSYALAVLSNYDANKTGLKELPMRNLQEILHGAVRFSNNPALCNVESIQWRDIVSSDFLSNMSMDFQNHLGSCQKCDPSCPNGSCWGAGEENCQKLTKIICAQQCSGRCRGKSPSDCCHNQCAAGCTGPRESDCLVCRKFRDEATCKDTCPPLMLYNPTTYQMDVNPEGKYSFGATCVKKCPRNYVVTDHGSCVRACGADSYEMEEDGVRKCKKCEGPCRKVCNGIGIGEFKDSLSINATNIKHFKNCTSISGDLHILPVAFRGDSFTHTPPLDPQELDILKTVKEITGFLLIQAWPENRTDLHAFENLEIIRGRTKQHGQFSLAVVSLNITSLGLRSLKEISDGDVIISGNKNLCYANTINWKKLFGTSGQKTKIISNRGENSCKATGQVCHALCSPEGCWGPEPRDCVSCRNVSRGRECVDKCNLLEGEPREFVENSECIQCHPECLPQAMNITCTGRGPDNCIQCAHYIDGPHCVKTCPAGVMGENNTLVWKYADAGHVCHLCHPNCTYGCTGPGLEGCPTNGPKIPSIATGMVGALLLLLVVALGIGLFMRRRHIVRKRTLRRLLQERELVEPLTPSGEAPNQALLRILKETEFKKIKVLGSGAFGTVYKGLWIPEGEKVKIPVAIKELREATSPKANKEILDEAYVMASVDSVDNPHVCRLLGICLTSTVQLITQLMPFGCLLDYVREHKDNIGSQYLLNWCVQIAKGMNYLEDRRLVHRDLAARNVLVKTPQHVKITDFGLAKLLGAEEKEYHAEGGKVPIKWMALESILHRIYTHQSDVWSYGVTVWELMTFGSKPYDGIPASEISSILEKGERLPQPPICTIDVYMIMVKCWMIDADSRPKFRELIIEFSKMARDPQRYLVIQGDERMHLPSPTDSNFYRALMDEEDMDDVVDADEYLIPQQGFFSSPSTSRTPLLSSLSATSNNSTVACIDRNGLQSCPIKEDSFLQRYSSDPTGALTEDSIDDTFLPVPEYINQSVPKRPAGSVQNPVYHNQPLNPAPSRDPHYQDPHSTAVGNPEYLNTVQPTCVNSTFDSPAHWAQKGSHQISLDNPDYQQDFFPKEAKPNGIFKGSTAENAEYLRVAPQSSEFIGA
# Chain of EGFR^WT kinase (P00533 25-1210): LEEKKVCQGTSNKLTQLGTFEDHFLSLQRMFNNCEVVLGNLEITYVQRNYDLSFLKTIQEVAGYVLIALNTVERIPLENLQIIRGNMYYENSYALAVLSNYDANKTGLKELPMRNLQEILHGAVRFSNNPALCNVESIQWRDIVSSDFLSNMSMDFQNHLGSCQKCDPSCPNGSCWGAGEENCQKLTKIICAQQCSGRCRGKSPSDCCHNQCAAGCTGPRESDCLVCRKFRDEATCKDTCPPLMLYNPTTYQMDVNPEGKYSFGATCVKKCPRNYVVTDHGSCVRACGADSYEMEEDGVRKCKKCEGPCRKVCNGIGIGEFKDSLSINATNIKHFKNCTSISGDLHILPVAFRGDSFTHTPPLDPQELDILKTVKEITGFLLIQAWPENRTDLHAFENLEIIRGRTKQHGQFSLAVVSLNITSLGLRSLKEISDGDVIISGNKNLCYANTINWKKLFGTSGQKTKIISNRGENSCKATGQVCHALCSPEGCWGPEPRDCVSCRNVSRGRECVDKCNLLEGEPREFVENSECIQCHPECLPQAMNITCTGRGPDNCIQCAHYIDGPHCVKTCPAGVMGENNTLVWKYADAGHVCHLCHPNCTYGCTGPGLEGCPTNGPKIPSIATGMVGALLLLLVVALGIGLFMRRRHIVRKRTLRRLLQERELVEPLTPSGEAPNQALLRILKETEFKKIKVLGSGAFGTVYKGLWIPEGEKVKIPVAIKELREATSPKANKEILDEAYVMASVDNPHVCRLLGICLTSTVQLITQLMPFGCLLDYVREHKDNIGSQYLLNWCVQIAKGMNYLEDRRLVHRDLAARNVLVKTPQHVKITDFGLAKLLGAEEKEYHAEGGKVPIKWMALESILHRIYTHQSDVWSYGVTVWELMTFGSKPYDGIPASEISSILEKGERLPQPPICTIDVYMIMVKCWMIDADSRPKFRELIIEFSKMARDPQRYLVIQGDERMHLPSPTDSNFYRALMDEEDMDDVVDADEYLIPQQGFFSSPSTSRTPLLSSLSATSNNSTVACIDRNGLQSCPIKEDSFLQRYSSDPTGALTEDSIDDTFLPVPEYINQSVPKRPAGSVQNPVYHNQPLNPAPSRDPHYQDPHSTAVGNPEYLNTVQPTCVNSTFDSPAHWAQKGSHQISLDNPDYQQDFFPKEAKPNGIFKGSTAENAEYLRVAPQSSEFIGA
smiles,measurement,setting,value
"CN1CCC[C@@H]1/C=C/C(=O)Nc1ccc2ncnc(Nc3ccc(OCc4ccccn4)c(Cl)c3)c2c1OCCO [Example 6, (R,E)-N-(4-((3-chloro-4-(pyridin-2-ylmethoxy)phenyl)amino)-5-(2-hydroxyethoxy)quinazolin-6-yl)-3-(1-methylpyrrolidin-2-yl)acrylamide]",IC50,EGFR^WT kinase,< 10 nM
same,GI50,[1],5 to 10 nM
same,IC50,HER2 kinase,< 10 nM
same,GI50,[2],1 to 5 nM
"CN1CCC[C@@H]1/C=C/C(=O)Nc1ccc2ncnc(Nc3ccc(OCc4ccccn4)c(Cl)c3)c2c1OCCCF [Example 10, (R,E)-N-(4-((3-chloro-4-(pyridin-2-ylmethoxy)phenyl)amino)-5-(3-fluoropropoxy)quinazolin-6-yl)-3-(1-methylpyrrolidin-2-yl)acrylamide]",IC50,EGFR^WT kinase,< 10 nM
same,GI50,[1],10 to 100 nM
same,IC50,HER2 kinase,< 10 nM
same,GI50,[2],1 to 5 nM
"CN1CCC[C@@H]1/C=C/C(=O)Nc1ccc2ncnc(Nc3ccc(OCc4ccccn4)c(Cl)c3)c2c1OCC(C)(C)O [Example 15, (R,E)-N-(4-((3-chloro-4-(pyridin-2-ylmethoxy)phenyl)amino)-5-(2-hydroxy-2-methylpropoxy)quinazolin-6-yl)-3-(1-methylpyrrolidin-2-yl)acrylamide]",IC50,EGFR^WT kinase,< 10 nM
same,GI50,[1],10 to 100 nM
same,IC50,HER2 kinase,< 10 nM
same,GI50,[2],1 to 5 nM

# Source: patent US20240246934A1, “QUINAZOLINE-BASED COMPOUND, COMPOSITION, AND APPLICATION OF QUINAZOLINE-BASED COMPOUND” (BEIJING SCITECH-MQ PHARMACEUTICALS LIMITED, priority 2021, published 2024)
